{"source": "patent US20120195860A1", "about": "“LATENT NEURAL STEM CELL POPULATION” (priority 2007, published 2012)", "key": {"[1]": {"tested_on": "hippocampal precursors of mice that underwent SE", "experiment": "hippocampal neurosphere assay after status epilepticus in vivo", "parameters": "species or system mouse", "protocol": "Seizures were induced in 6-8 week old C57BL/6 male mice by the administration of pilocarpine, a muscarinic cholinergic agonist. Thirty minutes prior to pilocarpine administration, the mice were injected with 2.5 mg/kg of the cholinergic antagonist scopolamine methyl nitrate (Sigma-Aldrich) to reduce peripheral cholinergic effects. They then received intraperitoneal injections of 350 mg/kg pilocarpine hydrochloride (Sigma-Aldrich). […] Seizures were stopped 2 hours after status epilepticus onset, with an intraperitoneal injection of 5 mg/kg diazepam (Patulin, Parnell Laboratories Sydney, Australia).\nIn addition we observed that extended depolarization, between 24 and 48 hours exposure to high level of KCl is required for the stimulation to occur in WT hippocampus confirming the need for prolonged depolarization."}, "[2]": {"tested_on": "adult mouse hippocampal cells", "experiment": "primary neurosphere culture, hippocampus", "type": "cell-based", "method": "Adult (6-8 week old) male C57/B16 mice were killed by cervical dislocation, their brains immediately removed and the hippocampus, SVZ, olfactory bulb or cortex dissected. The tissue was enzymatically digested with 0.1% trypsin-EDTA (Gibco/Invitrogen, Eugene, Oreg.) for 7 minutes at 37° C., followed by a wash with 0.014% w/v trypsin inhibitor (type I-S from soybean; Sigma-Aldrich. Australia, Sydney, Australia) dissolved in Hepes-buffered minimum essential medium (HEM), which consisted of minimum essential medium (Gibco/Invitrogen) supplemented with 16 mM HEPES (Sigma-Aldrich Australia) and 100 units/ml penicillin/streptomycin (Gibco/Invitrogene). The tissue was centrifuged at 100 rcf for 7 minutes, following which the pellet was resuspended in 1 ml neurosphere growth medium, mechanically triturated until smooth, then filtered through a 40 μm cell sieve (Falcon/BD Biosciences Australia, North Ryde, Australia). The neurosphere growth medium consisted of mouse NeuroCult™ NSC Basal Medium plus mouse NeuroCult™ NSC Proliferation Supplements (StemCell Technologies, Vancouver, Canada) with 2% bovine serum albumin (Roche, Basel, Switzerland) and 2 μg/ml heparin (Sigma-Aldrich Australia). […]"}, "[3]": {"tested_on": "DCX+ve / DCX-ve and PNA positive adult hippocampal cells", "experiment": "neurosphere assay on sorted hippocampal cells (DCX-GFP FACS, PNA binding)", "type": "cell-based, mouse", "protocol": "E14, P2 and adult brains were collected as described above and processed either whole or dissected into specific regions (olfactory bulb, cortex, cerebellum and subventricular zone (SVZ)). GFP+ve cells were separated by fluorescence-activated cell sorting (FACS) using a FACS Vantage cell sorter (BD Biosciences). A wild-type littermate control was used to determine background fluorescence levels. For primary neurosphere cultures the cells were plated at a density of 500 cells/well in 96-well plates (Falcon/BD Biosciences, San Jose, Calif.) with 0.2 ml complete medium per well. […] The primary neurospheres were then counted and collected for passaging or differentiation. Results of the neurosphere counts were expressed as mean + or − standard error and statistical analysis was performed using a standard t-Test (two sample assuming equal variance).\nMice in which the green fluorescent protein (GFP) is driven by the Doublecortin (DCX) promoter (DCX-GFP) were used for the separation of DCX^+ve cells. […] DCX-GFP^+ve and DCX-GFP^−ve cells were separated by fluorescence-activated cell sorting (FACS) using a FACS Vantage cell sorter (BD Biosciences) as described (see above). A wild-type littermate control was used to determine background fluorescence levels. Potassium was added to DCX^+ve and DCX^−ve cells at a final concentration of 15 mM and the number of neurospheres counted after 10 days."}, "[4]": {"tested_on": "33 week HD hippocampal precursors", "experiment": "hippocampal neurosphere assay, Huntington's disease R6/1 mice", "type": "cell-based, mouse", "conditions": "33 week old HD mice", "description": "R6/1 (B6CBA-TgN(HDexon1)61 Gpb/Pan) mice were originally obtained from Jackson Laboratory (Bar Harbor, Me.) and maintained by backcrossing to CBB6F1 females. For the neurosphere assays we used HD exon 1 carriers (R6/1) and aged matched wild-type littermates. Huntington's Disease is a neurodegenerative disorder that affects the striatum and cortex as well as hippocampus (Murphy et al., 2000). Previous studies have shown that older symptomatic R6/1 transgenic mice have a significant decrease in cell proliferation in the hippocampus compared to wild-type mice whereas younger pre-symptomatic R6/1 and WT mice had similar levels of proliferation (Lazic et al., 2004). […] We observed a decrease in the total number of hippocampal neuroapheres with age in WT mice that was not observed in HD mice."}, "cortical cells": {"tested_on": "cortical cells", "experiment": "primary neurosphere culture, cortex", "type": "cell-based, mouse", "conditions": "depolarization (potassium)", "protocol": "Adult (6-8 week old) male C57/B16 mice were killed by cervical dislocation, their brains immediately removed and the hippocampus, SVZ, olfactory bulb or cortex dissected. The tissue was enzymatically digested with 0.1% trypsin-EDTA (Gibco/Invitrogen, Eugene, Oreg.) for 7 minutes at 37° C., followed by a wash with 0.014% w/v trypsin inhibitor (type I-S from soybean; Sigma-Aldrich. Australia, Sydney, Australia) dissolved in Hepes-buffered minimum essential medium (HEM), which consisted of minimum essential medium (Gibco/Invitrogen) supplemented with 16 mM HEPES (Sigma-Aldrich Australia) and 100 units/ml penicillin/streptomycin (Gibco/Invitrogene). The tissue was centrifuged at 100 rcf for 7 minutes, following which the pellet was resuspended in 1 ml neurosphere growth medium, mechanically triturated until smooth, then filtered through a 40 μm cell sieve (Falcon/BD Biosciences Australia, North Ryde, Australia). […]\nThe neurosphere growth medium already contained 4.18 mM KCl. […] The primary neurospheres were then counted and collected for passaging or differentiation. Results of the neurosphere counts were expressed as mean ± standard error and statistical analysis was performed using a standard t-Test (two sample assuming equal variance)."}, "[5]": {"tested_on": "cells derived from the spinal cord", "experiment": "activation of cells derived from the spinal cord", "type": "cell-based", "conditions": "KCl"}}, "note": "Structures can show the parent of a compound that is named as a salt."}
{"smiles": "CC[C@@H]1C(=O)OC[C@@H]1Cc1cncn1C", "note": "[pilocarpine hydrochloride]", "values": [{"measurement": "activation of latent hippocampal population by induced seizures", "setting": "[1]; injections of pilocarpine hydrochloride, FIG. 8A", "value": "activation"}]}
{"smiles": "[Cl-].[K+]", "note": "[KCl, potassium chloride]", "values": [{"measurement": "increase in number of neurospheres, stimulated compared to control", "setting": "[2]; 18 month old hippocampus, depolarizing conditions", "value": "over 12 fold"}, {"measurement": "formation of large neurospheres", "setting": "[2]; potassium-induced depolarization, hippocampus", "value": "stimulates the formation of increased numbers of large neurospheres"}, {"measurement": "response of DCX-ve vs DCX+ve population to high levels of potassium", "setting": "[3]; 15 mM potassium, 10 days", "value": "it is this population, and not the DCX^+ve population, that responds"}, {"measurement": "activation of PNA positive population", "setting": "[3]; adult hippocampal cells separated by peanut agglutinin binding", "value": "activated"}, {"measurement": "further increase of HD hippocampal precursors by potassium depolarization in vitro", "setting": "[4]", "value": "could not be further increased"}, {"measurement": "increase in neurosphere number in cortex", "setting": "cortical cells", "value": "over 3 fold"}, {"measurement": "further stimulation of precursors from SE mice by depolarizing potassium", "setting": "[1]; SE at least 2 hours, sacrificed after 48 hours, potassium added in vitro", "value": "no further stimulatory effect"}, {"measurement": "activation of spinal cord derived cells", "setting": "[5]", "value": "activation"}]}
